Results on ten molecules are retold here after patent US5714347A (priority 1995, dated 1998).

Data set [1] concerns periplasmic carboxypeptidase in E. coli BL21 (DE3) extracts. The format is biochemical. How it is done: The pI shift upon incubation of ubiquitin with carboxypeptidase B was used as a convenient assay to test for carboxyl terminal glycine dipeptide processing in E. coli BL21 (DE3) extracts.
We tested a variety of metal salts for the ability to inhibit ubiquitin inactivation.

Data set [2] relates to A549 human lung carcinoma cell extract. The data set can be described thus: In vitro conjugation of 125I-UCRP to cellular proteins. Format: biochemical. To be noted: for inhibition of 125I-UCRP conjugation by excess unlabeled protein: isotope dilution, parallel incubations. How it is done: Confluent monolayer cultures of A549 human lung carcinoma cells were grown in Dulbecco's modified Eagle's medium supplemented with 10% (v/v) heat-inactivated fetal bovine serum. Cultures were maintained at 37° C. in a humidified 5% CO2 atmosphere. Cultures of A549 cells were induced by adding IFNβ to a final concentration of 1000 IU/ml (Loeb, K. R. and Haas, A. L., supra, 1992). Following 24 hours induction, cells were rinsed twice with PBS then harvested by scraping directly into 50 mM Tris-Cl (pH 7.6) containing 2 mMATP, 10 mM MgCl2, and 1 mM DTT (100 μl/100 mm plate). The cells were then briefly sonicated and the extracts used without further fractionation.

For data set [3] the test system is unchanged. To be noted: previous preparations, Loeb and Haas 1992; Loeb 1993; cited from earlier work.
Data set [4] relates to rabbit reticulocyte ubiquitin activating enzyme (E1). Format: biochemical. On the procedure:
The incorporation of ^32 PPi into ATP was measured by adsorbing the resulting ^32 P-labeled ATP onto charcoal and counting the bound radioactivity by Cerenkov radiation (Haas, A. L. and Rose, I. A., supra, 1982). Nonspecifically-bound ^32 PPi was corrected by subtracting radioactivity in control incubations conducted in the absence of added E1 (Haas, A. L. and Rose, I. A., supra, 1982).
Since these measurements were conducted in the absence of added AMP, the kinetic constants reflect step 3 of the E1 reaction involving formation of the final ternary complex (Haas, A. L. and Rose, I. A. J. Biol. Chem., .supra, 1982).

The target in data set [5] is T1, ubiquitin activating enzyme (E1) (Oryctolagus cuniculus, UniProt Q29504).
T1 construct: from rabbit reticulocytes, rabbit liver, and human erythrocytes; from tissue; host or cells: rabbit reticulocytes (inferred for this assay)
T1 sequence (Q29504 1-1058): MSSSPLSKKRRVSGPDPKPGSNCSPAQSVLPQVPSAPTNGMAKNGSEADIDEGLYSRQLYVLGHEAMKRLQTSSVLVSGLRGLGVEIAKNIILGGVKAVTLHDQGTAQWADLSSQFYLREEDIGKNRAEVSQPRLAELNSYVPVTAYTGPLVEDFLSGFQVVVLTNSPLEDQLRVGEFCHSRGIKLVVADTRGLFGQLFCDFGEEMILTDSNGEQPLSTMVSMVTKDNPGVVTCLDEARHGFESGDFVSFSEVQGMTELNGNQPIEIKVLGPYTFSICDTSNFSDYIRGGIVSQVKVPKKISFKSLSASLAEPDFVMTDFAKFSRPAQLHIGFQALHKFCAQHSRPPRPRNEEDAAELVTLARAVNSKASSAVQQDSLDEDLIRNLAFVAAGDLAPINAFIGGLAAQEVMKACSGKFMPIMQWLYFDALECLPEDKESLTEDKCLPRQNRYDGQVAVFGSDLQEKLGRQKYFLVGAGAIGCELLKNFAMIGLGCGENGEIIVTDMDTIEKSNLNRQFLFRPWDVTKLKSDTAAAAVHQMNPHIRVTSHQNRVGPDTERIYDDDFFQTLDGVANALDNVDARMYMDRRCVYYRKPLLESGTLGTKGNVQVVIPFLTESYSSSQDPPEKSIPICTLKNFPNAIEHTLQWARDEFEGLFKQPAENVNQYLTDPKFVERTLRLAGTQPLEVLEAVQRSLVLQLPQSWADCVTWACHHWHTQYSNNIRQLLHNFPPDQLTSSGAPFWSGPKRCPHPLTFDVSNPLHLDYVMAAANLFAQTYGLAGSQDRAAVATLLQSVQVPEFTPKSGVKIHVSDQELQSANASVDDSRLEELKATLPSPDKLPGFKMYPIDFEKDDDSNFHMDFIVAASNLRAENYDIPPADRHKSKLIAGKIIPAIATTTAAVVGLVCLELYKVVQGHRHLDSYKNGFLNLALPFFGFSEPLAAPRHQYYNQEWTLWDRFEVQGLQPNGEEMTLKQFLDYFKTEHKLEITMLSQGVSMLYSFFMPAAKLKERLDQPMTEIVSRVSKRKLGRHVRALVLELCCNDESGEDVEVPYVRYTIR
In words: Stoichiometry and kinetics of E1-bound adenylate formation (TCA-precipitable radioactivity with [2,8-3H]ATP). To be noted: for [3H]adenylate formation: 1 pmol of E1, inorganic pyrophosphatase. Format: biochemical. An excerpt:
Recent studies by Burch and Haas have shown that mutagenesis of specific ubiquitin residues sufficiently compromises binding of the resulting adenylate within the E1 active site to allow dissociation of the intermediate (Burch, T. J. and Haas, A. L., supra, 1994). The free but not the bound pool of ubiquitin [^3 H]adenylate is sensitive to cleavage by ubiquitin carboxyl terminal hydrolase (Burch, T. J. and Haas, A. L., supra, 1994; Pickart, C. M. and Rose, I. A., J. Biol. Chem. 260:7903-7910,1985).

In data set [6] the test system is carboxypeptidase B. The data set can be described thus: pI shift assay (isoelectric focusing after carboxypeptidase B) for intact carboxyl terminal glycine dipeptide. An excerpt:
Previous work has shown that the carboxyl terminal glycine dipeptide of ubiquitin is acutely sensitive to cleavage by trypsin-like activities (Haas, A. L., et al., J. Biol. Chem. 260:4694-4703, 1985; Wilkinson, K. D. and Audhya, T. K., J. Biol. Chem. 256:9235-9241, 1981). […] The specificity of carboxypeptidase B for lysine and arginine precludes a similar pI shift for intact ubiquitin in which R74 is masked by the glycine dipeptide (Haas, A. L., et al., supra, 1985).

Data set [7] deals with rabbit reticulocyte ubiquitin activating enzyme (E1). To be noted: cited from earlier work.

Like-named read-outs stand apart in the source and are kept apart here.

Regarding `[Cl][Cd][Cl]` [CdCl2], the “inhibiting UCRP inactivation” value in data set [1] is reported as “effective”.
For the molecule `[Cl-].[Cl-].[Co+2]` [CoCl2], in data set [1] (5 mM), the “ubiquitin and UCRP glycine dipeptide excision” value was “quantitatively blocks”. The inhibiting ubiquitin inactivation result in data set [1] (among the metal salts tested) is “most effective”.
With “^125 I-UCRP: Intact UCRP isolated in the presence of CoCl2, labeled with 125I”, the “dependence of conjugation on ATP and ATP regenerating system” value in data set [2] (both extracts) is given as “absolutely dependent”. Also, the “rate of conjugation to cellular proteins” value in data set [2] (extracts from A549 cultures induced 24 hours with 1000 IU/ml interferon-β (+IFN), versus uninduced) is listed as “significantly greater”; in data set [2] (extracts from uninduced cells (-IFN), 90 minutes incubation) it was “low but measurable rate”.
Consider `[Cl][Hg][Cl]` [HgCl2], for which, in data set [1], the “inhibiting UCRP inactivation” value was “effective”.
“recombinant ^125 I-UCRP: Radioiodinated recombinant UCRP of the previous, proteolytically inactivated preparations”: in data set [3], the “conjugation when added to fresh extracts of A549 cells” value is reported as “unable to demonstrate conjugation”.
As to ubiquitin cross-reactive protein [UCRP], in data set [2], the “inhibition of 125I-UCRP conjugation by excess unlabeled protein” value is “marked inhibition”. For the same molecule, in data set [4], the K1/2 came to 24 µM and the substrate inhibition entry is “no substrate inhibition”. In addition, in data set [5], the “first order rate constant of [3H]adenylate formation” value is 0.42 min⁻¹. Moreover, the “[3H]adenylate formation” value in data set [5] (after 5 minutes) amounted to 0.11 pmol.
As for `O=C(O)CN(CCN(CC(=O)O)CC(=O)O)CC(=O)O` [EDTA], the “rate of ubiquitin inactivation” value in data set [1] is “stimulated”.
“UCRP generated from UCRP-R: Intact UCRP resulting from removal of the arginine cap of purified UCRP-R” gave a K1/2 in data set [4] (UCRP 5 to 50 μM, 20 nM E1, 37° C., absence of added AMP (step 3)) of 24 µM. Further, the “pI shift upon incubation with carboxypeptidase B” value in data set [6] was “absence of a pI shift”.
Regarding “pure intact native UCRP: Pure intact native UCRP, K1/2 from Narasimhan et al. 1996”, the K1/2 in data set [7] (pure intact native UCRP, Narasimhan et al. 1996 in press) was 24 µM.
In general, kcat refers to the maximal rate divided by the concentration of active sites. For ubiquitin, the “inhibition of 125I-UCRP conjugation by excess unlabeled protein” value in data set [2] is “not”. Moreover, the K1/2 in data set [7] (step 3 of ubiquitin-supported reaction, values taken from Haas and Rose 1982) is 1.2 µM. Moreover, in data set [7] (ubiquitin at high concentrations, Haas and Rose 1982), the substrate inhibition entry was “pronounced substrate inhibition”. Also, the turnover number (kcat) in data set [7] (ubiquitin-supported reaction, values taken from Haas and Rose 1982) was 9.6 s⁻¹. For the same molecule, the “first order rate constant of [3H]adenylate formation” value in data set [5] is ≥ 6 min⁻¹. The “[3H]adenylate formation” value in data set [5] (within a 1 minute incubation) is “equivalent amount”.
